Data: patent US20140066385A1, “METHOD FOR TREATING CANCER BY COMBINED USE OF DRUGS” (Astellas Pharma Inc., priority 2011, published 2014)

Columns and labels:
[1] = system: human hormone-resistant prostatic cancer (PC-3); experiment: Example 10: FK330 with docetaxel in PC-3 tumor-bearing mice; format: in vivo, nude mice; conditions: FK330 100 mg/kg bid p.o. + docetaxel 10 mg/kg/day i.v. (2 days each cycle)
Experimental: The dose of FK330 is expressed in terms of the weight of a simple substance (non-hydrate). Docetaxel (a docetaxel hydrate injectable preparation (Taxotere (trademark), for intravenous infusion)) was purchased from Sanofi-Aventis SA, and was used as docetaxel.
FK330 was suspended (20 mg/mL) in a 0.5% aqueous methyl cellulose solution (0.5% MC), and was orally administered. Docetaxel was prepared to a concentration of 20 mg/mL with 95% ethanol, and then diluted to 1 mg/mL with physiological saline for injection (Otsuka Pharmaceutical Group) immediately before administration and intravenously administered through the tail vein.
Human hormone-resistant prostatic cancer-derived PC-3 (CRL-1435) was obtained from American Type Culture Collection (VA, USA). […]
The body weight and the tumor diameter, determined by using a digital caliper, were measured twice a week. The tumor volume was calculated from the calculation formula for ellipsoid volume of (major axis×[minor axis]^2×0.5).
The results are expressed as the mean value (Mean)±standard error (SEM). […] Using the actual measured values of the tumor volume at each measurement time point, an unpaired statistical test (Student's t-test) of the difference between two groups was carried out between a single administration group and a combined use group. […]

[2] = system: ischemia/reperfusion injury in rat liver transplantation; conditions: reported in Non-Patent Documents 3 and 4; cited from earlier work

## O=C(/C=C/c1ccc(Cl)cc1)N[C@@H](Cc1ccccn1)C(=O)NCC(=O)N1CCC(Oc2cc(C(F)(F)F)ncn2)CC1 [FK330, N^2-[(2E)-3-(4-chlorophenyl)-2-propenoyl]-N-[2-oxo-2-(4-{[6-(trifluoromethyl)pyrimidin-4-yl]oxy}piperidin-1-yl)ethyl]-3-pyridin-2-yl-L-alaninamide]
[1]; Day 27, P<0.062
  tumor volume reduction ratio compared with the docetaxel-only group: 49.3%
[1]; Day 51, P<0.05
  tumor volume reduction ratio compared with the docetaxel-only group: 42.0%
[2]
  efficacy for ischemia/reperfusion injury in rat liver transplantation: effective
